Measured values reported in patent US12064437B2, “Methods for treating systemic lupus erythematosus and the use of biomarkers as a predictor of clinical sensitivity to therapies” (CELGENE CORPORATION, priority 2020, dated 2024).

Legend:
Format in all cases: in vivo, human
[1] = tested on: subjects with active autoantibody-positive SLE; assay: Phase 2b study in SLE: SLE Responder Index 4 (SRI-4) response at week 24; conditions: for Percentage of Subjects Who Achieve SRI(4) at Week 24, n/m (%) / SRI(4) at Week 24, Stratified Difference (%) (95% CI), Iberdomide - Placebo: ITT
Protocol: (§1) The pharmacokinetics, pharmacodynamics (PD), efficacy, and safety of oral iberdomide ((S)-3-[4-({4-[(morpholin-4-yl)methyl]phenyl}methoxy)-1-oxo-1,3-dihydro-2H-isoindol-2-yl]piperidine-2,6-dione-hydrogen chloride (1/1)) were evaluated in a phase 2b study in subjects with active autoantibody-positive SLE.
(§2) Adult SLE patients (N=288) with a ≥6-month history of SLE and SLE Disease Activity Index (SLEDAI 2K) ≥6 were randomized to placebo (n=83) or iberdomide 0.15 mg QD (n=42), 0.3 mg QD (n=82), or 0.45 mg QD (n=81). Clinical response was determined by the SLE Responder Index 4 (SRI-4) at week 24 for all patients and within pre-specified biomarker-enriched subsets based on expression of Ikaros, Aiolos, the Type 1 IFN signature (IFI27, IFI44, IFI44L, RSAD2), and other gene modules measured from fingerstick blood collected at baseline (Modular Immune Profile Test, DxTerity Diagnostics, Inc.). The primary objective of the study was to evaluate the clinical efficacy of 3 doses of iberdomide (0.45 mg once per day [QD], 0.30 mg QD, or 0.15 mg QD) compared to placebo, for the treatment of active SLE using the SLE Responder Index at Week 24.

[2] = tested on: subjects with active autoantibody-positive SLE; assay: Phase 2b study in SLE: improvement of ≥50% from baseline in CLASI activity score; conditions: for percentage of subjects with improvement of ≥50% from baseline in CLASI activity score: baseline CLASI ≥8, Week 24
Protocol: as §1, §2
CLASI activity score at Week 24 was analyzed. Results for improvement of ≥50% from baseline in CLASI activity score at Week 24 were observed. Results are described as follows for overall subjects at each time point and for subgroups based on baseline characteristics and on mRNA and DNA expression as follows: […]

[3] = tested on: subjects with active autoantibody-positive SLE; assay: Phase 2b study in SLE: BILAG-Based Combined Lupus Assessment (BICLA) response
Protocol: as §1, §2
The treatment comparison with placebo (33.3%) for BICLA was larger in the subgroup of subjects with baseline IKZF3 high, but only for 0.45 mg QD iberdomide (52.0%) and 0.15 mg QD iberdomide (41.7%).

[4] = tested on: subjects with active autoantibody-positive SLE; assay: Exposure-response analysis: logistic regression of SRI(4) response on iberdomide AUCss
Protocol: PK assessments were performed. Exposure-response analysis included subjects from Study SLE-002 who had both posthoc estimated iberdomide PK metric of AUCss from the final population PK model and efficacy data.
The effect of iberdomide exposure on SRI(4) response was further evaluated by multivariate logistic modeling. Subject characteristics of baseline oral OCS (yes as reference), baseline antimalarials (yes as reference), categorical variables of Type I IFN and IKZF3 (Aiolos) signature (low as reference) were tested in regression analysis. Subjects with IFKZ3 (Aiolos) high gene signature were associated with better response (p=0.033) (Table 2).

[5] = T cell Exhaustion: Low at baseline, 0.15 mg QD
[6] = T cell Exhaustion: Low at baseline, 0.30 mg QD
[7] = T cell Exhaustion: Low at baseline, 0.45 mg QD
[8] = Type 1 IFN: High at baseline, 0.15 mg QD
[9] = Type 1 IFN: High at baseline, 0.30 mg QD
[10] = Type 1 IFN: High at baseline, 0.45 mg QD
[11] = AUCss on IFKZ3 (Aiolos) High Subset

O=C1CC[C@H](N2Cc3c(OCc4ccc(CN5CCOCC5)cc4)cccc3C2=O)C(=O)N1 [iberdomide, (S)-3-[4-({4-[(morpholin-4-yl)methyl]phenyl}methoxy)-1-oxo-1,3-dihydro-2H-isoindol-2-yl]piperidine-2,6-dione-hydrogen chloride (1/1)] was tested, and the “Percentage of Subjects Who Achieve SRI(4) at Week 24, n/m (%)” value (“Percentage … (%)” below) ([1]; Overall Subjects, 0.45 mg QD, nonresponder imputation, listed as Iberdomide) was 44/81 (54.3) %, the “SRI(4) at Week 24, Stratified Difference (%) (95% CI), Iberdomide - Placebo” value ([1]; Overall Subjects, 0.45 mg QD, listed as Iberdomide) was 19.4 (4.12, 33.42) % and the “Percentage … (%)” value [1, 5] was 13/29 (44.8) %. For the same molecule, the “SRI(4) at Week 24, Stratified Difference (%) (95% CI), Iberdomide - Placebo” value [1, 5] was 5.4 (−15.51, 26.63) %, the “Percentage … (%)” value [1, 6] was 28/65 (43.1) % and the “SRI(4) at Week 24, Stratified Difference (%) (95% CI), Iberdomide - Placebo” value [1, 6] was 4.7 (−12.69, 21.53) %. For the same molecule, the “Percentage … (%)” value [1, 7] was 39/66 (59.1) %, the “SRI(4) at Week 24, Stratified Difference (%) (95% CI), Iberdomide - Placebo” value [1, 7] was 21.9 (4.30, 37.77) % and the “Percentage … (%)” value [1, 8] was 15/25 (60.0) %. For the same molecule, the “SRI(4) at Week 24, Stratified Difference (%) (95% CI), Iberdomide - Placebo” value [1, 8] was 25.6%, the “SRI(4) at Week 24, Stratified Difference (%) (95% CI), Iberdomide - Placebo” value ([1]; Type 1 IFN: High at baseline, 0.15 mg QD, listed as Iberdomide) was 25.6 (1.54, 46.35) % and the “Percentage … (%)” value [1, 9] was 21/49 (42.9) %. For the same molecule, the “SRI(4) at Week 24, Stratified Difference (%) (95% CI), Iberdomide - Placebo” value [1, 9] was 10.6 (−8.93, 29.11) %, the “Percentage … (%)” value [1, 10] was 34/57 (59.6) % and the “SRI(4) at Week 24, Stratified Difference (%) (95% CI), Iberdomide - Placebo” value [1, 10] was 26.8%. For the same molecule, the “SRI(4) at Week 24, Stratified Difference (%) (95% CI), Iberdomide - Placebo” value ([1]; Type 1 IFN: High at baseline, 0.45 mg QD, listed as Iberdomide) was 26.8 (7.49, 43.54) %, the SRI-4 clinical efficacy ([1]; double-negative IFN Low Aiolos Low population, week 24) was “no clinical efficacy” and the “improvement of ≥50% from baseline in CLASI activity score, stratified difference from placebo” value ([2]; 0.45 mg QD, Week 8, ITT population using NRI) was 14.3%. For the same molecule, the “improvement of ≥50% from baseline in CLASI activity score, stratified difference from placebo” value ([2]; 0.45 mg QD, Week 12, ITT population using NRI) was 12.2%, the “improvement of ≥50% from baseline in CLASI activity score, stratified difference from placebo” value ([2]; 0.45 mg QD, Week 16, ITT population using NRI) was 18.2% and the “improvement of ≥50% from baseline in CLASI activity score, stratified difference from placebo” value ([2]; 0.45 mg QD, Week 20, ITT population using NRI) was 12.3%. For the same molecule, the “percentage of subjects with improvement of ≥50% from baseline in CLASI activity score” value ([2]; IKZF3 high, 0.15 mg QD) was 50.0%, the “percentage of subjects with improvement of ≥50% from baseline in CLASI activity score” value ([2]; IKZF3 high, 0.30 mg QD) was 33.3% and the “percentage of subjects with improvement of ≥50% from baseline in CLASI activity score” value ([2]; IKZF3 high, 0.45 mg QD) was 77.8%. The “percentage of subjects with improvement of ≥50% from baseline in CLASI activity score” value ([2]; Ikaros IFN module high, 0.15 mg QD) was 54.5%, the “percentage of subjects with improvement of ≥50% from baseline in CLASI activity score” value ([2]; Ikaros IFN module high, 0.30 mg QD) was 52.4% and the “percentage of subjects with improvement of ≥50% from baseline in CLASI activity score” value ([2]; Ikaros IFN module high, 0.45 mg QD) was 63.6%. The “percentage of subjects with improvement of ≥50% from baseline in CLASI activity score” value ([2]; Type 1 IFN module high, 0.15 mg QD) was 66.7%, the “percentage of subjects with improvement of ≥50% from baseline in CLASI activity score” value ([2]; Type 1 IFN module high, 0.30 mg QD) was 52.4% and the “percentage of subjects with improvement of ≥50% from baseline in CLASI activity score” value ([2]; Type 1 IFN module high, 0.45 mg QD) was 61.9%. The “improvement of ≥50% from baseline in CLASI activity score, stratified difference from placebo” value ([2]; baseline CLASI activity score ≥8, 0.15 mg QD, Week 16) was 10.6%, the “improvement of ≥50% from baseline in CLASI activity score, stratified difference from placebo” value ([2]; baseline CLASI activity score ≥8, 0.15 mg QD, Week 20) was 35.3% and the “improvement of ≥50% from baseline in CLASI activity score, stratified difference from placebo” value ([2]; baseline CLASI activity score ≥8, 0.30 mg QD, Week 8) was 23.6%. For the same molecule, the “improvement of ≥50% from baseline in CLASI activity score, stratified difference from placebo” value ([2]; baseline CLASI activity score ≥8, 0.30 mg QD, Week 16) was 3.1, the “improvement of ≥50% from baseline in CLASI activity score, stratified difference from placebo” value ([2]; baseline CLASI activity score ≥8, 0.45 mg QD, Week 4) was 32.0% and the “improvement of ≥50% from baseline in CLASI activity score, stratified difference from placebo” value ([2]; baseline CLASI activity score ≥8, 0.45 mg QD, Week 16) was 9.4%. For the same molecule, the “percentage of subjects who achieved BICLA response at Week 24” value ([3]; baseline IKZF3 high, 0.15 mg QD) was 41.7%, the “percentage of subjects who achieved BICLA response at Week 24” value ([3]; baseline IKZF3 high, 0.45 mg QD) was 52.0% and the “BICLA response at Week 24, stratified difference from placebo” value ([3]; overall subjects with baseline BILAG 2004 1A or 2B scores, 0.15 mg QD) was 0.3%. The “percentage of subjects who achieved BICLA response at Week 24” value ([3]; overall subjects with baseline BILAG 2004 1A or 2B scores, 0.15 mg QD, NRI, ITT) was 37.1%, the “BICLA response at Week 24, stratified difference from placebo” value ([3]; overall subjects with baseline BILAG 2004 1A or 2B scores, 0.30 mg QD) was −3.6% and the “percentage of subjects who achieved BICLA response at Week 24” value ([3]; overall subjects with baseline BILAG 2004 1A or 2B scores, 0.30 mg QD, NRI, ITT) was 33.3%. The “BICLA response at Week 24, stratified difference from placebo” value ([3]; overall subjects with baseline BILAG 2004 1A or 2B scores, 0.45 mg QD) was 1.0%, the “percentage of subjects who achieved BICLA response at Week 24” value ([3]; overall subjects with baseline BILAG 2004 1A or 2B scores, 0.45 mg QD, NRI, ITT) was 37.3% and the “OR (odds ratio) of Multivariate Logistic Model for SRI(4)” value [4, 11] was 1.102. For the same molecule, the “Parameter Estimate of Multivariate Logistic Model for SRI(4)” value [4, 11] was 0.0969 and the “relationship of binary response SRI(4) to iberdomide AUCss (logistic regression)” value ([4]; dose range 0.15 mg to 0.45 mg QD) was “no relationship”.
